Data published in article PMC10974290, “Biocatalytic Synthesis of Coumarin S-Glycosides: Towards Non-Cytotoxic Probes for Biomedical Imaging and Sensing” (Molecules, 2024).
Marks after values point to notes of the source that are not given here.

What was measured:
[1] = design: method as in doi:10.1016/1010-6030(89)87054-6; conditions: DMF; ref [50]; cited from earlier work
[2] = UV-visible absorbance spectroscopy; assay type: physicochemical; conditions: 0.1 mM
Description: Subsequently, the analysis was carried out under two distinct conditions: firstly, in DMF, at a final concentration of 0.1 mM; and secondly, in a mixture PBS:DMF (99:1%), at the same final concentration of 0.1 mM. These two experimental setups provided valuable insights into the spectral characteristics of the compounds in both a pure organic solvent and a solvent system closely resembling physiological conditions. The maxima absorption wavelengths are compiled in Table 3. These bands were attributed to transitions within the benzene and pyrone moieties, considered together as a single chromophore. […] Similarly, 7-MC and S-1 to S-6 compounds also absorb in this UV range (λmax = 328–330 nm). […] In the organic solvent, these values are found to be higher compared to those calculated for 4-MUB and 7-MC. Conversely, in PBS, the extinction coefficients for S-glycosides are lower compared to the parent thiol 7-MC. This highlights the profound impact of glycosylation on absorption properties, as well as the importance of solvent choice.
(§1) Both absorbance and fluorescence spectra were measured on a Tecan […] M PLEX 200 Pro plate reader equipped with monochromator allowing a scan from 230 to 1000 nm. All synthesized molecules were initially dissolved in 10 mM DMF and subsequently diluted in freshly prepared PBS (pH = 7.4) to achieve a final concentration of 0.1 mM. The solutions were then transferred to a Corning (Corning, NY, USA) UV-transparent 96-well plate. Absorbance spectra were recorded from 230 to 800 nm. Emission fluorescence spectra were recorded from 320 to 800 nm, under excitation at 280 nm. Excitation fluorescence spectra were recorded from 230 to 380 nm for an emission at 420 nm. All spectra were recorded with a wavelength step size of 2 nm. Data processing was performed with Excel software 2016. Fluorescence spectra are presented as normalized spectra ranging from 0 to 1. The relative quantum yields were calculated according to Equation (1):(1) ΦT=(AR/AT)×(FT/FR)×[…]×ΦR where Φ is the fluorescence quantum yield, A is the absorbance at the excitation wavelength, F is the area under the corrected emission curve, and n is the refractive index of the solvent for the test compound (T) and the reference (R). The 4-MUB value in DMF was used as the reference. The LOD (resp. LOQ) values were determined as the minimal concentration of product S-3 required to yield a fluorescence that was twice greater than (respectively, 5-times that of) the fluorescence noise on a sample containing PBS, using an excitation wavelength of 280 nm and an emission wavelength of 386 nm (Figure S44).

[3] = Fluorescence excitation/emission spectroscopy and relative quantum yield; assay type: physicochemical; conditions: 7-MC in presence of 10 mM DTT; for Fluorescence λmax ex: emission at 420 nm; for Fluorescence λmax em: excitation at 280 nm
Description: The values determined were close to those observed for the 4-MUB fluorophore.
as §1, with “All synthesized molecules were initially dissolved in 10 mM DMF and subsequently diluted in freshly prepared PBS (pH = 7.4) to achieve a final concentration of 0.1 mM.” left out

[4] = tested on: SK-MEL-28 (melanoma skin cancer); assay: MTT cell proliferation assay, SK-MEL-28; assay type: cell-based; conditions: Homo sapiens, 72 h incubation, 95% confidence interval in parentheses
Description: (§2) To use these S-glycosidic compounds in cellulo, the potential impact of the glycosidic linkage nature on the anticancer activity was assessed. The S-glycoside derivatives and the 7-MC were tested against four human cancer cell lines and a healthy one, namely A549 (lung carcinoma), HS-683 (glioma cancer), MCF-7 (breast adenocarcinoma), SK-MEL-28 (melanoma skin cancer), and HaCaT (keratinocyte normal skin), using MTT (thiazolyl blue tetrazolium bromide, Sigma-Aldrich, St. Louis, MO, USA) assay, as previously described in the literature. The selected reference drugs were 5-fluorouracil (5-FU) and etoposide.
(§3) Cell proliferation of five distinct cell lines was evaluated using the colorimetric MTT (thiazolyl blue tetrazolium bromide, Sigma) assay. Human keratinocyte normal skin HaCaT was cultivated in DMEM supplemented with 4.5 g/L glucose, 2 mM L-glutamine, and 10% FBS. Cancer cell lines and their respective growth media were obtained from CLS Cell Line Service GmbH (Eppelheim, Germany). Specifically, human skin melanoma SK-MEL-28 and human brain glioma HS683 were cultivated in DMEM with identical supplements as HaCaT cells. The human lung carcinoma cell line A-549 was grown in DMEM/Ham’s F12 (1:1) medium supplemented with 2 mM L-glutamine and 5% FBS. Additionally, human breast adenoma carcinoma MCF-7 cells were sustained in EMEM supplemented with 2 mM L-glutamine, sodium pyruvate, non-essential amino acids (NEAAs), 10 µg/mL insulin human, and 10% FBS. The MTT assay relies on the reduction of the yellow product thiazolyl blue tetrazolium bromide (MTT) to formazan, a purple-blue product, by mitochondrial dehydrogenases in metabolically active cells. The number of living cells after incubation in the presence (or absence, control) of the tested molecules is directly proportional to the blue color, which was measured by spectrophotometry. To perform the assay, cells were initially seeded at a density of 2500 cells/mL in 96-well culture plates (Nunc™ Edge 2.0, Fisher) and allowed to adhere and proliferate over a 24-hour incubation period. Following this, the cells were treated with various concentrations of the tested compounds, which were previously prepared as serial dilutions and dissolved in 0.1% DMSO. These stable solutions guarantee the consistency of experimental conditions over extended periods. Each concentration of the tested compounds underwent triplicate testing (n = 3), and cells were subsequently incubated for 72 h to allow for thorough evaluation. Following this incubation period, MTT reagent (5 mg/mL solution in PBS) was introduced to each well (10% v/v), and cells were further incubated for 4 h. Then, the culture medium was carefully removed, and the resulting blue formazan crystals were dissolved in 100 µL of 100% DMSO. Absorbance readings were taken at 540 nm, referencing a wavelength of 620 nm, using a spectrophotometer. In determining the IC50, the absorbance of serial dilutions of each cell line, treated under identical conditions but without the presence of the tested compounds, was measured.

HS683 (brain glioma) = assay: MTT cell proliferation assay, HS683; assay type: cell-based; conditions: Homo sapiens, Hs 683, 72 h incubation, 95% confidence interval in parentheses
Description: as §2, §3

[5] = tested on: MCF-7 (breast adenocarcinoma); assay: MTT cell proliferation assay, MCF-7; assay type: cell-based; conditions: Homo sapiens, MCF7, 72 h incubation, 95% confidence interval in parentheses
Description: as §2, §3

[6] = tested on: HaCaT (keratinocyte normal skin); assay: MTT cell proliferation assay, HaCaT; assay type: cell-based; conditions: Homo sapiens, 72 h incubation, 95% confidence interval in parentheses
Description: as §2, §3

A-549 (lung carcinoma) = assay: MTT cell proliferation assay, A-549; assay type: cell-based, human; conditions: Homo sapiens, A549, 72 h, 72 h incubation, 95% confidence interval in parentheses
Description: as §2, with “literature.” for “literature. The selected reference drugs were 5-fluorouracil (5-FU) and etoposide.”
as §3, with “These stable solutions guarantee the consistency of experimental conditions over extended periods.” left out

[7] = DMF, 7-MC in presence of 10 mM DTT

Row | Absorbance ε (molar absorption coefficient) [2, 7] | Absorbance λmax abs [2, 7] [nm] | emax (molar absorption coefficient) ([2]; PBS 1x (pH = 7.4), 7-MC + DTT 10 mM) | Absorbance λmax abs ([2]; PBS (PBS:DMF 99:1, pH 7.4), 7-MC in presence of 10 mM DTT) [nm] | Fluorescence λmax ex ([3]; DMF, 0.1 mM) [nm] | Fluorescence λmax em ([3]; DMF, 0.1 mM) [nm] | Fluorescence λmax ex ([3]; PBS pH 7.4, 0.1 mM) [nm] | Fluorescence λmax em ([3]; PBS pH 7.4, 0.1 mM) [nm] | Relative quantum yield Φ ([3]; PBS, relative to 4-MUB in DMF) | IC50 [4] [µM] | IC50 (HS683 (brain glioma)) [µM] | IC50 [5] [µM] | IC50 (A-549 (lung carcinoma)) [µM] | SMILES | Quantum yield Φ (reference value) [1] | IC50 [6] [µM]
1 | 17.0 10^3 M^−1 cm^−1 | 322 | 20129,15057 cm-1 M-1 | 324 | 320 | 380 | 333 | 448 | 0.293 |  |  |  |  | Cc1cc(=O)oc2cc(O)ccc12 [Compound 4-MUB, 4-methylumbelliferone, reference compound] | 0.081 ^a | 
2 |  |  |  |  |  |  |  |  |  | 6.6 | 37 | 4.8 |  | O=c1[nH]cc(F)c(=O)[nH]1 [Compound 5-FU, 5-fluorouracil, reference compound] |  | 0.4
3 |  |  |  |  |  |  |  |  |  | 3.2 | 1.6 | 3.9 | 1.6 | COc1cc([C@@H]2c3cc4c(cc3[C@@H](O[C@@H]3O[C@@H]5CO[C@@H](C)O[C@H]5[C@H](O)[C@H]3O)[C@H]3COC(=O)[C@H]23)OCO4)cc(OC)c1O [Etoposide, etoposide, reference compound] |  | 0.5
